Source: patent US20260184710A1, “CASITAS B-LINEAGE LYMPHOMA PROTOONCOGENE B (CBL-B) DEGRADING COMPOUNDS AND ASSOCIATED METHODS OF USE” (Arvinas Operations, Inc., priority 2022, published 2026)

Experiments:
Cbl-b [1] = molecular target: T1, Cbl-b (Homo sapiens, UniProt Q13191); experiment: Cbl-b Degradation Method B (Nano-Glo HiBiT lytic detection); format: cell-based; details: Cbl-b-HiBit KI Jurkat Cells, incubated at least 6-24 hours; for DC50: half maximal degradation, read-out: Cbl-b Degredation Method B IC50; for Cbl-b Degredation Method B Dmax (%) / Dmax: maximum degradation observed; for Dmax: read-out: Cbl-b Degredation Method B Dmax (%)
T1 construct: Cbl-b-HiBit KI Jurkat Cells were purchased from Promega; host or cells: Cbl-b-HiBiT knock-in Jurkat cells
How it was run: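 Cbl-b-HiBiT knock-in Jurkat cells (20,000/well) were treated after ~24 h plating with an 11-point 1:3 series for 6-24 h at 37° C. Remaining Cbl-b measured by Nano-Glo HiBiT lytic luminescence. DC50 and Dmax expressed as % of control.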

Cbl-b [2] = molecular target: T1, Cbl-b; experiment: Cbl-b Degradation Method A (FACS, anti-Cbl-b antibody staining); format: cell-based; details: for DC50: half maximal degradation, read-out: Cbl-b Degredation Method A IC50; for Dmax: Jurkat, read-out: Cbl-b Degredation Method A Dmax (%)
How it was run: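 Cbl-b-HiBit KI Jurkat cells treated with compound for at least 20 h at 37 °C, then fixed, permeabilized and stained with anti-Cbl-b antibody plus anti-rabbit AF488 secondary. Cbl-b levels read by FACS; DC50 and Dmax (percent of control) derived.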

[3] = Cbl-b-HiBit KI Jurkat Cells, incubated at least 20 hours
[4] = Cbl-b-HiBit KI Jurkat Cells, incubated at least 20 hours, maximum degradation observed

T1 sequence (Q13191 whole entry): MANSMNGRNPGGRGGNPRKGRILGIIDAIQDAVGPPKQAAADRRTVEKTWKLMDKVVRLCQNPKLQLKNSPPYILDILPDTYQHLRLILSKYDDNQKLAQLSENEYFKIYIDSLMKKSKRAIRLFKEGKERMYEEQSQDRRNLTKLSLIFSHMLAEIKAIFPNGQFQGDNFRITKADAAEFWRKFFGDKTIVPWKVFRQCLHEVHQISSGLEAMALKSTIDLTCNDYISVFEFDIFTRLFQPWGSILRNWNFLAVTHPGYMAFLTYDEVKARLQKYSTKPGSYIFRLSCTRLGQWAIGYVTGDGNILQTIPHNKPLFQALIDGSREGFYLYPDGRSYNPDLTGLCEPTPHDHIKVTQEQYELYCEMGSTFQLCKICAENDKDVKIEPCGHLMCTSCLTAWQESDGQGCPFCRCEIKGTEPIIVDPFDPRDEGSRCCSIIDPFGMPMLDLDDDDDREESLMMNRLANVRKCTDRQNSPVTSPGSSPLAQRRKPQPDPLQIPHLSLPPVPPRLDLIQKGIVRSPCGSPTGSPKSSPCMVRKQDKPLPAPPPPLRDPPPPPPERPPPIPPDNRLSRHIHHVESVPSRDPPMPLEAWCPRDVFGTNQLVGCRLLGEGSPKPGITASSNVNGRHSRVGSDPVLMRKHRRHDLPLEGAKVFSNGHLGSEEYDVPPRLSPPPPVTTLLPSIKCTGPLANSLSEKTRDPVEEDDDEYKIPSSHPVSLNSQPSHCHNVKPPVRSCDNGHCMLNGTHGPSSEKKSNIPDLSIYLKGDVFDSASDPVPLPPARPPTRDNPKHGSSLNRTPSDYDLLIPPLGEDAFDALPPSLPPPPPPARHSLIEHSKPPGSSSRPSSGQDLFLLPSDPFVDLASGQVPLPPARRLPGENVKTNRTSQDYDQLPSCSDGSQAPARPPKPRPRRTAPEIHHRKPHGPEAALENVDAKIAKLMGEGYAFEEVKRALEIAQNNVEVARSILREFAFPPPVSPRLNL

DC50 (Cbl-b [1]) [nM] | Cbl-b Degredation Method B Dmax (%) (Cbl-b [1]) | DC50 (Cbl-b [2]; [3]) [nM] | Dmax (Cbl-b [2]; [4]) [%] | Dmax (Cbl-b [1]) [%] | Structure (SMILES) | Dmax (Cbl-b [2]) [%]
< 5 | C (C ≤ 35) | 50 to 500 | > 70 | – | COC1CC(Cc2nncn2C)(c2cccc(N3Cc4c(cc(CN5CCN(C[C@H]6CC[C@H](OC7CCN(c8ccc9c(n8)C(C)N(C8CCC(=O)NC8=O)C9=O)CC7)CC6)CC5(C)C)cc4C(F)(F)F)C3=O)c2)C1 (stereo partly shown) [Example 294, 3-[7-methyl-5-oxo-2-(4-{[(1r,4r)-4-[(4-{[2-(3-{3-methoxy-1-[(4-methyl-4H-1,2,4-triazol-3-yl)methyl]cyclobutyl}phenyl)-3-oxo-7-(trifluoromethyl)-2,3-dihydro-1H-isoindol-5-yl]methyl}-3,3-dimethylpiperazin-1-yl)methyl]cyclohexyl]oxy}piperidin-1-yl)-5H,6H,7H-pyrrolo[3,4-b]pyridin-6-yl]piperidine-2,6-dione] | –
< 5 | C (C ≤ 35) | 50 to 500 | 35 to 70 | – | C[C@@H]1c2nc(N3CCC(O[C@H]4CC[C@H](CN5CCN(Cc6cc7c(c(C(F)(F)F)c6)CN(c6cccc(C8(Cc9nncn9C)CC(C#N)C8)c6)C7=O)CC5(C)C)CC4)CC3)ccc2C(=O)N1C1CCC(=O)NC1=O (single isomer, unassigned) [Example 311, (1r***,3r***)-3-(3-{6-[(3,3-dimethyl-4-{[(1r**,4r**)-4-({1-[(7R*)-6-(2,6-dioxopiperidin-3-yl)-7-methyl-5-oxo-5H,6H,7H-pyrrolo[3,4-b]pyridin-2-yl]piperidin-4-yl}oxy)cyclohexyl]methyl}piperazin-1-yl)methyl]-1-oxo-4-(trifluoromethyl)-2,3-dihydro-1H-isoindol-2-yl}phenyl)-3-[(4-methyl-4H-1,2,4-triazol-3-yl)methyl]cyclobutane-1-carbonitrile] | –
> 500 | – | > 500 | 35 to 70 | – | Cn1cnnc1CC1(c2cccc(N3Cc4c(cc(CN5CCC(N6CCN(CC7CCN(c8ccc9c(c8)C(=O)N(C8CCC(=O)NC8=O)C9=O)CC7)CC6)CC5)cc4C(F)(F)F)C3=O)c2)COC1 (stereo not shown) [Example 103, 2-(2,6-dioxopiperidin-3-yl)-5-(4-{[4-(1-{[2-(3-{3-[(4-methyl-4H-1,2,4-triazol-3-yl)methyl]oxetan-3-yl}phenyl)-3-oxo-7-(trifluoromethyl)-2,3-dihydro-1H-isoindol-5-yl]methyl}piperidin-4-yl)piperazin-1-yl]methyl}piperidin-1-yl)-2,3-dihydro-1H-isoindole-1,3-dione] | –
5 to 50 | – | 5 to 50 | 35 to 70 | 35 to 70 | Cn1cnnc1C[C@]1(c2cccc(N3Cc4c(cc(N5CC6(CCN(CC7CCN(c8ccc9c(c8)C(=O)N(C8CCC(=O)NC8=O)C9=O)CC7)CC6)C5)cc4C(F)(F)F)C3=O)c2)C[C@H](C#N)C1 (stereo partly shown) [Example 136, (1r,3r)-3-(3-{6-[7-({1-[2-(2,6-dioxopiperidin-3-yl)-1,3-dioxo-2,3-dihydro-1H-isoindol-5-yl]piperidin-4-yl}methyl)-2,7-diazaspiro[3.5]nonan-2-yl]-1-oxo-4-(trifluoromethyl)-2,3-dihydro-1H-isoindol-2-yl}phenyl)-3-[(4-methyl-4H-1,2,4-triazol-3-yl)methyl]cyclobutane-1-carbonitrile] | –
< 5 | – | 5 to 50 | > 70 | > 70 | COc1c(N2CCC(O[C@H]3CC[C@H](CN4CCC5(CC4)CN(c4cc6c(c(C(F)(F)F)c4)CN(c4cccc(C7(Cc8nncn8C)COC7)c4)C6=O)C5)CC3)CC2)ccc2c1CN(C1CCC(=O)NC1=O)C2=O (stereo partly shown) [Example 169, 3-[4-methoxy-1-oxo-5-(4-{[(1r,4r)-4-({2-[2-(3-{3-[(4-methyl-4H-1,2,4-triazol-3-yl)methyl]oxetan-3-yl}phenyl)-3-oxo-7-(trifluoromethyl)-2,3-dihydro-1H-isoindol-5-yl]-2,7-diazaspiro[3.5]nonan-7-yl}methyl)cyclohexyl]oxy}piperidin-1-yl)-2,3-dihydro-1H-isoindol-2-yl]piperidine-2,6-dione] | –
50 to 500 | – | 5 to 50 | < 35 | – | Cc1cc(N2CCC(O[C@H]3CC[C@H](CN4CCN(Cc5cc(C(F)(F)F)c6cn(-c7cccc(C8(Cc9nncn9C)CC(C#N)C8)c7)nc6c5)C(C)(C)C4)CC3)CC2)c(F)c2c1C(=O)N(C1CCC(=O)NC1=O)C2 (stereo partly shown) [Example 292, (1r**,3r**)-3-(3-{6-[(2,2-dimethyl-4-{[(1r*,4r*)-4-({1-[2-(2,6-dioxopiperidin-3-yl)-4-fluoro-7-methyl-1-oxo-2,3-dihydro-1H-isoindol-5-yl]piperidin-4-yl}oxy)cyclohexyl]methyl}piperazin-1-yl)methyl]-4-(trifluoromethyl)-2H-indazol-2-yl}phenyl)-3-[(4-methyl-4H-1,2,4-triazol-3-yl)methyl]cyclobutane-1-carbonitrile] | –
< 5 | – | 5 to 50 | 35 to 70 | 35 to 70 | Cc1cc(N2CCC(CN3CCC4(C3)CN(c3cc5c(c(C(F)(F)F)c3)CN(c3cccc([C@]6(Cc7nncn7C)C[C@@H](C#N)C6)c3)C5=O)C4)CC2)c(F)c2c1C(=O)N(C1CCC(=O)NC1=O)C2 (stereo partly shown) [Example 176, (1r,3r)-3-(3-{6-[6-({1-[2-(2,6-dioxopiperidin-3-yl)-4-fluoro-7-methyl-1-oxo-2,3-dihydro-1H-isoindol-5-yl]piperidin-4-yl}methyl)-2,6-diazaspiro[3.4]octan-2-yl]-1-oxo-4-(trifluoromethyl)-2,3-dihydro-1H-isoindol-2-yl}phenyl)-3-[(4-methyl-4H-1,2,4-triazol-3-yl)methyl]cyclobutane-1-carbonitrile] | –
< 5 | – | < 5 | > 70 | 35 to 70 | C[C@@H]1CN(C[C@H]2CC[C@H](OC3CCN(c4ccc5c(c4F)CN(C4CCC(=O)NC4=O)C5=O)CC3)CC2)CCN1Cc1cc2c(c(C(F)(F)F)c1)CN(c1cccc(C3(Cc4nncn4C)COC3)c1)C2=O (stereo partly drawn) [Example 195, 3-[4-fluoro-1-oxo-5-(4-{[(1r,4r)-4-{[(3R)-3-methyl-4-{[2-(3-{3-[(4-methyl-4H-1,2,4-triazol-3-yl)methyl]oxetan-3-yl}phenyl)-3-oxo-7-(trifluoromethyl)-2,3-dihydro-1H-isoindol-5-yl]methyl}piperazin-1-yl]methyl}cyclohexyl]oxy}piperidin-1-yl)-2,3-dihydro-1H-isoindol-2-yl]piperidine-2,6-dione] | –

Structure (SMILES) | DC50 (Cbl-b [1]) [nM] | Cbl-b Degredation Method B Dmax (%) (Cbl-b [1]) | DC50 (Cbl-b [2]; [3]) [nM] | Dmax (Cbl-b [2]; [4]) [%] | Dmax (Cbl-b [1]) [%] | Dmax (Cbl-b [2]) [%]
Cn1cnnc1CC1(c2cccc(N3Cc4c(cc(CN5CCC[C@H](CN6CCN(C[C@H]7CC[C@H](OC8CCN(c9ccc%10c(c9F)CN(C9CCC(=O)NC9=O)C%10=O)CC8)CC7)CC6(C)C)C5)cc4C(F)(F)F)C3=O)c2)COC1 (stereo partly drawn) [Example 148, 3-[5-[4-[4-[[3,3-dimethyl-4-[[(3S)-1-[[2-[3-[3-[(4-methyl-1,2,4-triazol-3-yl)methyl]oxetan-3-yl]phenyl]-3-oxo-7-(trifluoromethyl)isoindolin-5-yl]methyl]-3-piperidyl]methyl]piperazin-1-yl]methyl]cyclohexoxy]-1-piperidyl]-4-fluoro-1-oxo-isoindolin-2-yl]piperidine-2,6-dione] | < 5 | – | < 5 | – | > 70 | > 70
